Series [1] relates to lysosomal peptidase / purified lysosomal enzymes. Description: hydrolysis under conditions of lysosomal digestion (release of free drug). Type of series: in vitro ADME. As to conditions: for daunorubicine regenerated by the action of lysosomal peptidase: pH 6.0, aminoacid linked to daunorubicine. From the text:
According to the invention, the arm is of peptidic nature and contains preferably 3 or 4 aminoacids. It is particularly important that the aminoacid being bound to the free amino function of the drug through its carboxylic function, has an asymmetric carbon atom and has the L-configuration because the peptidases or the lysosomal hydrolases only cut the peptidic bonds in the alpha position with respect to an asymmetric carbon. The aminoacid composing the peptidic spacer arm could be selected among the following L-aminoacids: α-aminobutyric acid, γ-aminobutyric acid, ε-aminocaproic acid, arginine, asparagine, aspartic acid, cysteic acid, cysteine, glutamine, glutamic acid, glycine, histidine, 4-hydroxyproline, […]. Of particular interest to play this function is L-leucine. […] In addition, a much higher rate of release of the free drug is obtained when the number of aminoacids making up the peptidic arm increases and may be as high as 78% when the intermediate peptide is made of a sequence of 4 aminoacids. Thus according to the invention, the intermediate "spacer arm" preferably is represented by the sequence

A short description of the next series: stability in the serum. The series is classed as in vitro ADME. An excerpt: According to the invention, the arm is of peptidic nature and contains preferably 3 or 4 aminoacids. It is particularly important that the aminoacid being bound to the free amino function of the drug through its carboxylic function, has an asymmetric carbon atom and has the L-configuration because the peptidases or the lysosomal hydrolases only cut the peptidic bonds in the alpha position with respect to an asymmetric carbon. The aminoacid composing the peptidic spacer arm could be selected among the following L-aminoacids: α-aminobutyric acid, γ-aminobutyric acid, ε-aminocaproic acid, arginine, asparagine, aspartic acid, cysteic acid, cysteine, glutamine, glutamic acid, glycine, histidine, 4-hydroxyproline, […]. Of particular interest to play this function is L-leucine.

For a further series, the system named is L 1210 leukemia. Briefly: mice inoculated intraperitoneally with L 1210 leukemia, treated by intraperitoneal route. Type of series: in vivo. As to conditions: for activity against L 1210 leukemia in mice compared with daunorubicine or L-leucyl-daunorubicine: i.p. inoculation, i.p. treatment; for activity against L 1210 leukemia in mice compared with daunorubicine or L-leucyl-daunorubicine / toxicity compared with daunorubicine or L-leucyl-daunorubicine: equal doses expressed as daunorubicine; for toxicity compared with daunorubicine or L-leucyl-daunorubicine: mice, i.p.

For another series, the system named is L 1210 leukemia cells. Description: in vitro growth inhibition of L 1210 leukemia cells. As to conditions: 72 hours of culture; concentration near 10 μg/cm^3. The series is classed as cell-based. How it is done:
Thus the products in which the drug is daunorubicine inhibit in vitro the growth of cancerous cells such as cells of L 1210 leukemia in an appropriate medium. For example, after 72 hours of culture, BSA-succinyl-L-Ala-L-Leu-L-Ala-L-Leu-Daunorubicine at a concentration near 10 μg/cm^3, causes 90% of inhibition of the growth of L 1210 leukemia cells.

Setting [2] is: 5 mg/kg expressed as daunorubicine, mice with L 1210 leukemia.

On to `CC[C@H](C)[C@H](N)C(=O)O` [L-isoleucine], for which, in series [1], the “daunorubicine regenerated by the action of lysosomal peptidase” value turned out to be 60%.

Take `N[C@@H](Cc1ccc(O)cc1)C(=O)O` [L-tyrosine]: the “daunorubicine regenerated by the action of lysosomal peptidase” value in series [1] stood at 70%.

For the molecule `COc1cccc2c1C(=O)c1c(O)c3c(c(O)c1C2=O)C[C@@](O)(C(C)=O)C[C@@H]3O[C@H]1C[C@H](NC(=O)[C@@H](N)CC(C)C)[C@H](O)[C@H](C)O1` [N-L-leucyl-daunorubicine], the “regeneration of the free drug when submitted to lysosomal digestion” value (“regeneration of the free drug” for short) in series [1] is given as “regenerate rapidly the free drug”. In addition, the free daunorubicine released in series [1] (two hours hydrolysis at pH 4.5, lysosomal digestion) is listed as 65%; in series [1] (two hours hydrolysis at pH 6.0, lysosomal digestion), 90%. The “stability in the serum” value in the series “stability in the serum” is recorded as “stable in the serum”.

With `COc1cccc2c1C(=O)c1c(O)c3c(c(O)c1C2=O)C[C@@](O)(C(=O)CO)C[C@@H]3O[C@H]1C[C@H](NC(=O)[C@@H](N)CC(C)C)[C@H](O)[C@H](C)O1` [N-L-leucyl-doxorubicine], the “regeneration of the free drug” value in series [1] was “regenerate rapidly the free drug”. Moreover, the “stability in the serum” value in the series “stability in the serum” is “stable in the serum”.

`COc1cc(NC(C)CCCNC(=O)[C@@H](N)CC(C)C)c2ncccc2c1` (stereo partly drawn) [N-L-leucyl-primaquine]: the “regeneration of the free drug” value in series [1] is reported as “regenerate rapidly the free drug”. In addition, in the series “stability in the serum”, the “stability in the serum” value is “stable in the serum”.

As to `COc1cccc2c1C(=O)c1c(O)c3c(c(O)c1C2=O)C[C@@](O)(C(C)=O)C[C@@H]3O[C@H]1C[C@H](N)[C@H](O)[C@H](C)O1` [daunorubicine, reference compound], in the series on L 1210 leukemia (setting [2]), the “increase of life span (ILS)” value was “about 7%”. Also, the “toxicity at the dose” value in the series on L 1210 leukemia (5 mg/kg, mice with L 1210 leukemia) is listed as “already toxic at that dose”.

Regarding “BSA-succinyl-L-Ala-L-Leu-L-Ala-L-Leu-Daunorubicine: succinyl-alanyl-leucyl-alanyl-leucyl-daunorubicine coupled with bovine serum albumin”, in the series on L 1210 leukemia, the “activity against L 1210 leukemia in mice compared with daunorubicine or L-leucyl-daunorubicine” value was “markedly better activity than that of daunorubicine or L-leucyl-daunorubicine” and the “toxicity compared with daunorubicine or L-leucyl-daunorubicine” value was “less toxicity”. Also, in the series on L 1210 leukemia cells, the “inhibition of the growth of L 1210 leukemia cells” value is reported as 90%.

For the molecule “fetuine-succinyl-L-Ala-L-Leu-L-Ala-L-Leu-daunorubicine: succinylated fetuine coupled with L-alanyl-L-leucyl-L-alanyl-L-leucyl-daunorubicine”, in the series with L 1210 leukemia (setting [2]), the “increase of life span (ILS)” value is reported as about 194%. The “surviving mice after 30 days of observation” value with L 1210 leukemia (5 mg/kg expressed as daunorubicine, of 10 mice) is 8. Also, in the series on L 1210 leukemia, the “activity against L 1210 leukemia in mice compared with daunorubicine or L-leucyl-daunorubicine” value was “markedly better activity than that of daunorubicine or L-leucyl-daunorubicine” and the “toxicity compared with daunorubicine or L-leucyl-daunorubicine” value is reported as “less toxicity”.

The record behind these values is patent publication US4376765A, “Medicaments, their preparation and compositions containing same” (Institut International de Pathologie Cellulaire et …, priority 1980, dated 1983).
